Data published in ChEMBL document CHEMBL1201862, “PubChem BioAssay data set” (2004).
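Step 1: Grow cells in 96-well plates. Step 2: Expose to compound for 48 hours at 5 concentrations. Step 3: Interpolate endpoints linearly; if unreached, use highest concentration. GI50: concentration for 50% inhibition of growth.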 Activity calls are given as the source filed them. Rule as the data show it: active = GI50 up to about 1.1 µM and inactive = higher.

What was measured:
Assay in all cases: NCI tumour cell line growth inhibition, 48 h
HT-29 = test system: HT-29
EKVX = test system: EKVX
NCI-H23 = test system: NCI-H23
SNB-75 = test system: SNB-75
SK-OV-3 = test system: SK-OV-3
COLO 205 = test system: COLO 205
NCI-H226 = test system: NCI-H226
SR = test system: SR
SK-MEL-5 = test system: SK-MEL-5
MDA-N = test system: MDA-N
NCI-H522 = test system: NCI-H522
Malme-3M = test system: Malme-3M
HL-60 = test system: HL-60
HOP-92 = test system: HOP-92
A498 = test system: A498
TK-10 = test system: TK-10
KM12 = test system: KM12

Measured: GI50

CO[C@H]1O[C@@H]2OC3(C)CCC4[C@H](C)CCC([C@H]1C)[C@]42OO3 (stereo partly specified)
inactive: HT-29 > 100 µM | EKVX > 100 µM | NCI-H23 > 100 µM | SNB-75 85.9 µM | SK-OV-3 > 100 µM | COLO 205 28.2 µM | NCI-H226 > 100 µM | SR 56.2 µM | SK-MEL-5 38 µM | MDA-N > 100 µM | NCI-H522 > 100 µM | Malme-3M > 100 µM | HL-60 1.32 µM | HOP-92 > 100 µM | A498 > 100 µM

C=C1CC[C@H]2C(C)=CC[C@H]3C(=C)C(=O)O[C@@H]3[C@@H]12 [EREMANTHIN]
inactive: HT-29 > 100 µM | EKVX > 100 µM | NCI-H23 > 100 µM | TK-10 > 100 µM | SK-OV-3 > 100 µM | COLO 205 92 µM | NCI-H226 > 100 µM | SR > 100 µM | SK-MEL-5 > 100 µM | MDA-N > 100 µM | NCI-H522 > 100 µM | Malme-3M > 100 µM | HL-60 > 100 µM | HOP-92 > 100 µM | A498 > 100 µM

CC(C)=CC1C(C(=O)Oc2ccccc2C(C)C)C1(C)C (stereo unspecified)
inactive: HT-29 16.4 µM | EKVX 17.3 µM | NCI-H23 23.8 µM | TK-10 32.8 µM | SNB-75 21.3 µM | SK-OV-3 31.6 µM | SR 20.9 µM | SK-MEL-5 18.2 µM | MDA-N 26.4 µM | NCI-H522 16.6 µM | Malme-3M 16.3 µM | KM12 18.1 µM | HL-60 19.1 µM | HOP-92 25.5 µM | A498 19.7 µM

CCOC(=O)C1CCC(=O)N1C(=O)c1ccc(Cl)cc1 (stereo unspecified)
inactive: HT-29 > 100 µM | EKVX > 100 µM | NCI-H23 > 100 µM | SNB-75 > 100 µM | NCI-H226 > 100 µM | SR > 100 µM | SK-MEL-5 > 100 µM | MDA-N > 100 µM | NCI-H522 > 100 µM | Malme-3M > 100 µM | KM12 > 100 µM | HL-60 > 100 µM | HOP-92 > 100 µM | A498 > 100 µM

c1ccc(CCN2CCOCC2)nc1
inactive: HT-29 > 100 µM | EKVX > 100 µM | NCI-H23 > 100 µM | TK-10 > 100 µM | SK-OV-3 > 100 µM | COLO 205 > 100 µM | NCI-H226 > 100 µM | SR > 100 µM | SK-MEL-5 > 100 µM | MDA-N > 100 µM | NCI-H522 > 100 µM | Malme-3M > 100 µM | KM12 > 100 µM | HL-60 > 100 µM | HOP-92 > 100 µM | A498 > 100 µM

COc1ccc2[nH]c(Cl)c(/C=C3/C(=O)N(c4ccccc4)c4ccccc43)c2c1
inactive: HT-29 3.98 µM | EKVX 7.08 µM | NCI-H23 4.06 µM | TK-10 10.8 µM | SNB-75 12.3 µM | SK-OV-3 3.5 µM | COLO 205 2.18 µM | SR 2.65 µM | SK-MEL-5 2.28 µM | MDA-N 1.6 µM | NCI-H522 3.25 µM | Malme-3M 6.76 µM | KM12 3.25 µM | HL-60 2.33 µM | HOP-92 13.7 µM | A498 8.17 µM

N#Cc1ccc2oc3ccc(C#N)cc3c(=O)c2c1
inactive: HT-29 20.2 µM | NCI-H23 21.3 µM | TK-10 24.3 µM | SNB-75 31.7 µM | COLO 205 26.7 µM | NCI-H226 35.9 µM | SR 41.6 µM | SK-MEL-5 5.6 µM | MDA-N 16.4 µM | NCI-H522 58.2 µM | Malme-3M 24.2 µM | KM12 46.5 µM | HL-60 17.9 µM | HOP-92 41 µM | A498 14.8 µM

O=C(NCC(O)COc1ccccc1)c1ccccc1O (stereo unspecified)
inactive: EKVX > 100 µM | NCI-H23 > 100 µM | TK-10 > 100 µM | SK-OV-3 > 100 µM | COLO 205 > 100 µM | NCI-H226 > 100 µM | SR 87.7 µM | SK-MEL-5 63.5 µM | MDA-N > 100 µM | NCI-H522 55.6 µM | Malme-3M > 100 µM | KM12 > 100 µM | HOP-92 86.1 µM | A498 > 100 µM

COc1cc2c(c(OC3OC(CO)C(O)C(O)C3O)c1)C(=O)CC(c1ccc(O)cc1)O2 (stereo unspecified)
inactive: HT-29 > 100 µM | EKVX > 100 µM | NCI-H23 > 100 µM | TK-10 > 100 µM | SNB-75 > 100 µM | SK-OV-3 > 100 µM | COLO 205 > 100 µM | NCI-H226 > 100 µM | SR > 100 µM | SK-MEL-5 > 100 µM | MDA-N > 100 µM | NCI-H522 > 100 µM | KM12 > 100 µM | HL-60 > 100 µM | HOP-92 > 100 µM | A498 > 100 µM
